Test results taken from patent US8816095B2, “Na channels, disease, and related assays and compositions” (Georgetown University, priority 2008, dated 2014).

Assays:
hNav1.7 = biological target: T1, hNav1.7 (Homo sapiens, UniProt Q15858); experiment: Fluorescent (FRET) based sodium channel assay, hNav1.7; assay type: cell-based; conditions: HEK293 stably transfected with hNav1.7, 20 μM veratridine, read-out: hNav 1.7 IC50
T1 construct: expressed in transfected cells; host or cells: HEK293
Procedure: (§1) Two isoforms of the channel were examined: hNav1.5, a cardiac sodium channel associated with arrhythmias, and hNav1.7, an isoform found in the peripheral nervous system.
HEK293 cells stably transfected with either hNav1.5 or hNav1.7 were plated at approximately 11,000-20,000 cells/well in flat bottom, poly-D-lysine coated black-wall, clear-bottom, 384-well plates (Becton Dickinson, Bedford, Mass.), and incubated overnight at 37° C. in a 10% CO2 atmosphere in growth medium. Cells were washed with 0.03 mL of Dulbecco's phosphate buffered saline (D-PBS) containing calcium and magnesium. Cells were then incubated with 0.025 mL of a solution containing 10 μM CC2-DMPE and 0.02% pluronic acid in D-PBS with calcium and magnesium; supplemented with 10 mM glucose, and 10 mM Hepes-NaOH, pH 7.4. […] Afterwards, cells were incubated in the dark at 25° C. for 45 min with 0.025 mL of a solution containing 5 μM DiSBAC2(3) in VIPR-S, in the absence or presence of test compound. At the end of the incubation period, the plate was placed in a FLIPR TETRA instrument (MDS Analytical Technologies, Sunnyvale Calif.), illuminated at 390-420 nm, and fluorescence emissions were recorded at approximately 1 Hz at 460 and 580 nm. Following a 7 second baseline reading, 0.025 mL of VIPR-S containing 10 μM veratridine for Nav1.5 or 20 μM veratridine for Nav1.7 was added to each well, and the emissions of both dyes were recorded for an additional 33 seconds. The change in fluorescence resonance energy transfer (FRET) ratio (F/F0) was calculated as: F/F0=((A460/A580/(I460/I580) where A and I represent the readings after or before addition of veratridine, respectively, at the indicated wavelengths. For I, the readings from 2-5 seconds were averaged, and for A, readings from 3 seconds after the signal had reached a plateau level (usually within 30-40 s) were also averaged. Triplicate measurements were performed for each experimental condition and the data were averaged.

hNav1.5 = biological target: T2, hNav1.5 (Homo sapiens, UniProt Q14524); experiment: Fluorescent (FRET) based sodium channel assay, hNav1.5; assay type: cell-based; conditions: HEK293 stably transfected with hNav1.5, 10 μM veratridine, read-out: hNav 1.5 IC50
T2 construct: expressed in transfected cells; host or cells: HEK293
T2 sequence (Q14524 whole entry): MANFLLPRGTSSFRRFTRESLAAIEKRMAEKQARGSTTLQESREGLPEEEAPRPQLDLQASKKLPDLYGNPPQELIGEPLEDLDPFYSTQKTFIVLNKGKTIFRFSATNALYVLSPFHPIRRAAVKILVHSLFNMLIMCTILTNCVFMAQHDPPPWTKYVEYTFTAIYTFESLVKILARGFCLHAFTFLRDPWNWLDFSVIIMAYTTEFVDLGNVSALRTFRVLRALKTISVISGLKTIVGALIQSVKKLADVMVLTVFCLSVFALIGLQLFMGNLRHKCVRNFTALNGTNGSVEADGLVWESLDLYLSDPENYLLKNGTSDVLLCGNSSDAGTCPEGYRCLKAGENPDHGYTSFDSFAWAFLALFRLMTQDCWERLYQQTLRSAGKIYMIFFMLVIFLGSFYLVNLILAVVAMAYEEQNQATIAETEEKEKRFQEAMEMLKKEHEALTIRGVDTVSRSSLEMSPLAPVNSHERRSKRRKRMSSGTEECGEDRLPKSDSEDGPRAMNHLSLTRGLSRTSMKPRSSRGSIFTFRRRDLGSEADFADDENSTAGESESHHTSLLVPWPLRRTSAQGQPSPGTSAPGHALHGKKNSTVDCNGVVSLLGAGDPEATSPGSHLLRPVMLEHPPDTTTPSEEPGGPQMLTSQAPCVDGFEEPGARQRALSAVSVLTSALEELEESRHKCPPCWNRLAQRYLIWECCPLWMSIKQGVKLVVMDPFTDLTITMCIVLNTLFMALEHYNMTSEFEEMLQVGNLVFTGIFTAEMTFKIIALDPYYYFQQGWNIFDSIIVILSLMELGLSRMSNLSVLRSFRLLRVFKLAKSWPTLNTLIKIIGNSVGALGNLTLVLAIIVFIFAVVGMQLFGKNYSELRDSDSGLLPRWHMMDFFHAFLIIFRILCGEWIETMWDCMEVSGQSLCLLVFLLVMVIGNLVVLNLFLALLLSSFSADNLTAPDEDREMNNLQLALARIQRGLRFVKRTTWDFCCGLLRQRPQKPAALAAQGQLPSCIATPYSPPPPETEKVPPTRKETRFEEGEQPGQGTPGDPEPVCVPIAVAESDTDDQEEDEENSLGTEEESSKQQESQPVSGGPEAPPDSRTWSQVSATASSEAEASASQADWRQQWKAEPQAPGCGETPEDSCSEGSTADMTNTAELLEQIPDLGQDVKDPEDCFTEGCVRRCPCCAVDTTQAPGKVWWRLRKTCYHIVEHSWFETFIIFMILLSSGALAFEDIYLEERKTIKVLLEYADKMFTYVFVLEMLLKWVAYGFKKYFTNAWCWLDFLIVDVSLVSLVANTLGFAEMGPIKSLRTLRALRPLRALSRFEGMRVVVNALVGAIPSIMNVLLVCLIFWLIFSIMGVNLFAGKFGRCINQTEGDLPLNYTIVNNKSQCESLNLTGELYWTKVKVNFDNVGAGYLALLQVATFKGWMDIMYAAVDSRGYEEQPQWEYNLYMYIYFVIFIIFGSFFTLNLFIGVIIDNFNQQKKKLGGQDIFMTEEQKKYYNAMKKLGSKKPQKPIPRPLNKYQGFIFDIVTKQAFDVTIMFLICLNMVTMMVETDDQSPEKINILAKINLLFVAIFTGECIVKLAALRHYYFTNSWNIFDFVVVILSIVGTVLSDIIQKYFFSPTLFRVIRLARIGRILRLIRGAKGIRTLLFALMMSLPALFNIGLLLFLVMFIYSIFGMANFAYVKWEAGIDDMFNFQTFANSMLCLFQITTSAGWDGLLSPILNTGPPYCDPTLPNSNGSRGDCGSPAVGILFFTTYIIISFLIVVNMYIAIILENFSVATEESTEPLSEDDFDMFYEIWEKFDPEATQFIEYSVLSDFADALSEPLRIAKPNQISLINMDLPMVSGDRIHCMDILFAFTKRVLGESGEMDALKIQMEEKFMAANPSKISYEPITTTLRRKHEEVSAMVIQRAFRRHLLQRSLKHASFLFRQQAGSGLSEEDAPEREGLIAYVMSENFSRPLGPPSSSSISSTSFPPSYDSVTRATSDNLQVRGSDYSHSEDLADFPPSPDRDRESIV
Procedure: as §1
HEK293 cells stably transfected with either hNav1.5 or hNav1.7 were plated at approximately 11,000-20,000 cells/well in flat bottom, poly-D-lysine coated black-wall, clear-bottom, 384-well plates (Becton Dickinson, Bedford, Mass.), and incubated overnight at 37° C. in a 10% CO2 atmosphere in growth medium. Cells were washed with 0.03 mL of Dulbecco's phosphate buffered saline (D-PBS) containing calcium and magnesium. Cells were then incubated with 0.025 mL of a solution containing 10 μM CC2-DMPE and 0.02% pluronic acid in D-PBS with calcium and magnesium; supplemented with 10 mM glucose, and 10 mM Hepes-NaOH, pH 7.4. […] At the end of the incubation period, the plate was placed in a FLIPR TETRA instrument (MDS Analytical Technologies, Sunnyvale Calif.), illuminated at 390-420 nm, and fluorescence emissions were recorded at approximately 1 Hz at 460 and 580 nm. Following a 7 second baseline reading, 0.025 mL of VIPR-S containing 10 μM veratridine for Nav1.5 or 20 μM veratridine for Nav1.7 was added to each well, and the emissions of both dyes were recorded for an additional 33 seconds. […]

PC-3 cells [1] = experiment: PC-3 cell growth inhibition assay (WST-8); assay type: cell-based; conditions: Homo sapiens, WST-8, 48 hours
Procedure: The effect of compound 2 was studied on the proliferation of human androgen independent prostate cancer (PC-3) cells, using a cell viability assay with WST-8. […].
PC-3 cells were added to the wells of a 96 well plate at 7500 cells per well in 100 uL of RPMI medium with 10% serum and allowed to plate down overnight. The medium was then removed and replaced with serum free medium containing the appropriate concentration of drug. DMSO concentration was kept below 1%. At this time WST-8 cell counting reagent was added to the control (T=0) wells and allowed to incubate for 2 hours and the absorbance was read at 450 nm to determine the starting number of cells per well. The plates were incubated for 48 hours, the medium was removed and the wells were washed with 100 uL of PBS. The PBS was removed that the wells were filled with 110 uL of serum free RPMI media containing the WST-8 reagent. After two hours of incubation, the plates absorbance was read at 450 nm and normalized to the control value.

neuronal VGSCs = conditions: read-out: inactivated state-dependent blocking activity IC50 in neuronal VGSCs; cited from earlier work
PC-3 cells [2] = experiment: PC-3 MTT cell viability assay; assay type: cell-based; conditions: Homo sapiens, read-out: GI50 ± SEM (10 μM), DPH and JDA-3-135 previously determined
Text: Following the determination that compound CDPNS inhibits the VGSCs that are present in androgen independent PC-3 cells, a 3-(4,5-Dimethylthiazol-2-yl)-2,5-diphenyltetrazolium bromide (MTT) cell viability assay was utilized to measure the ability of compound CDPNS to inhibit PC-3 cell growth via VGSC blockade. In this experiment data yielded from CDPNS was compared to previously determined DPH and JDA-3-135 antiproliferation data (Table 10).

[3] = system: Na+ channel site 2 binding site; experiment: [3H]-BTX assay, rat forebrain membranes; conditions: ± S.E.M., n in brackets
Procedure: In order to determine if the hermitamides bind to the sodium channel, the natural products, their enantiomers, and the racemic mixture were tested for their ability to displace [^3H]-batrachatoxin. Batrachatoxin is a lipid-soluble neurotoxin that binds to site 2 of the sodium channel. This site is known to overlap with the local anesthetic binding […]. Ligands known to bind to […] of the sodium channel include anesthetics, anticonvulsants and antiarrthymics. As a control, phenyloin, a clinically-used sodium channel blocker that is known to displace [^3H]BTX was also included.
The assays were run at 10 μM and recorded as percent displacement of BTX.
Briefly, rat forebrain membranes (10 mg tissue/well) were incubated with [^3H]-BTX (30-60 Ci/mmol). […] The reaction was terminated by rapid vacuum filtration of the reaction contents onto glass fiber filters. Radioactivity trapped onto the filters was determined and compared with control values to ascertain any interactions of the test compound with the Na^+ channel site 2 binding site. Aconitine (1 μM) was used as a positive control (Sigma Aldrich, Inc., St. Louis, Mo.).

[4] = Incidence of prostate cancer in epileptic men treated with sodium channel blockers; parameters: species or system human; conditions: 1427 epileptic men given drug vs 14270 control, 1994 to 2003
Text: The incidence of prostate cancer in epileptic men treated with sodium channel blockers was studied from 1994 to 2003. In the study, 1427 epileptic men were given phenyloin as a sodium channel blocker while 14270 epileptic men were not given a sodium channel blocker (control).

site 2 of the VGSC = experiment: [3H]-BTX-B displacement assay at site 2; assay type: binding, rat

T1 sequence (Q15858 whole entry): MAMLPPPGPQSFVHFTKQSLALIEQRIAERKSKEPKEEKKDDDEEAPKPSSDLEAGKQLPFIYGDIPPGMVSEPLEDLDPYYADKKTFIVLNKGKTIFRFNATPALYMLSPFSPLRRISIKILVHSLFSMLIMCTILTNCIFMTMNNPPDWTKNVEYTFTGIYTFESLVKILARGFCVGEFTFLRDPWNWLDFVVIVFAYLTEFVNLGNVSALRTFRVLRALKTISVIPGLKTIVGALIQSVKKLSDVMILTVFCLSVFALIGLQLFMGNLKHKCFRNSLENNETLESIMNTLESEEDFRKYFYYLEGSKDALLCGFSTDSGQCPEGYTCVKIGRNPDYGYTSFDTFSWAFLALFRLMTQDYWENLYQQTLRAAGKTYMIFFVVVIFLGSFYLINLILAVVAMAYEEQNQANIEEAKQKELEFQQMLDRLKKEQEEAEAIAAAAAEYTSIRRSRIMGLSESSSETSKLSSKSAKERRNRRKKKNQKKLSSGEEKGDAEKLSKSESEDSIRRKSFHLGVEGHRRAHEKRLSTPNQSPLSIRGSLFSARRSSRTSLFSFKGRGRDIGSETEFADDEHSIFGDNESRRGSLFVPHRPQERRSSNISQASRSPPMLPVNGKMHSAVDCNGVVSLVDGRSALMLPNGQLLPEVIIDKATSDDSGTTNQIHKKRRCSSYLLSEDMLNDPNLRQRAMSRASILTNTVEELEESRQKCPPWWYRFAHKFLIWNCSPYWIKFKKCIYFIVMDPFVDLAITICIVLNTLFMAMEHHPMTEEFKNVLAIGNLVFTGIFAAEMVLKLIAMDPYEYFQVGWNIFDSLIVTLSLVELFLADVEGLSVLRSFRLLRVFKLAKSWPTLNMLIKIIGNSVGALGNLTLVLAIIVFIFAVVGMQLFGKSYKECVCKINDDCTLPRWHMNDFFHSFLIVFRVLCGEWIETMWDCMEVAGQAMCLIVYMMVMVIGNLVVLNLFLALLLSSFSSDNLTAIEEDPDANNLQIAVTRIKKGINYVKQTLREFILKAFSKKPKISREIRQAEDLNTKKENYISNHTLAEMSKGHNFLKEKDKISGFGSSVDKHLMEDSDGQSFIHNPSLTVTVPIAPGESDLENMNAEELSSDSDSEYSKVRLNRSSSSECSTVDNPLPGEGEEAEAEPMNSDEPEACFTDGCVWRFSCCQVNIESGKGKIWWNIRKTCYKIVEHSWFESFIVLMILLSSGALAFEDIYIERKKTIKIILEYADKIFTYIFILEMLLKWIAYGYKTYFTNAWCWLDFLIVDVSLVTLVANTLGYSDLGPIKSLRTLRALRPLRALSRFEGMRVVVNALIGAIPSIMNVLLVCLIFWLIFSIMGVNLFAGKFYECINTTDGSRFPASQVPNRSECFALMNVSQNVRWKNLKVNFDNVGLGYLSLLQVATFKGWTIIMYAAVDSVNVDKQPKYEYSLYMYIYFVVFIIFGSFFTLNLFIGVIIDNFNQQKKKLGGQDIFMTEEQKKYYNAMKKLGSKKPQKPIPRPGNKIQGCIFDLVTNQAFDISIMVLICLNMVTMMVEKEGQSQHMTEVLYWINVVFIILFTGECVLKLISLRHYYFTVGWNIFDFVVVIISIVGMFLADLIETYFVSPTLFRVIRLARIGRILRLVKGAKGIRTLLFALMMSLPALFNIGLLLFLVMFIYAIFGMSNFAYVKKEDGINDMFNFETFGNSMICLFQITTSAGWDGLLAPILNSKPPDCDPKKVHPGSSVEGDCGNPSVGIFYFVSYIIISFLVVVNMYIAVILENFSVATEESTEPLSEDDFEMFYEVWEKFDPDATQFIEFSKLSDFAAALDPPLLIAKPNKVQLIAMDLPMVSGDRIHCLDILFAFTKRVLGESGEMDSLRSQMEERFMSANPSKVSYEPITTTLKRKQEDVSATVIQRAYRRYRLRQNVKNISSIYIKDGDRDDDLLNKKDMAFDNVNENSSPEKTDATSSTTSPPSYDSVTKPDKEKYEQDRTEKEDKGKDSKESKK

With `O=C1NC(=O)C(c2ccccc2)(c2ccccc2)N1` [DPH, Diphenylhydantoin, reference compound] as the compound, how does the IC50 (hNav1.7) read?
Its IC50 is > 100 µM.

And the IC50 (hNav1.5)?
Its IC50 is > 100 µM.

And the GI50 (PC-3 cells [1]; read-out: GI50 in PC3 prostate cancer cells)?
The GI50 was > 100 µM.

And the GI50 (PC-3 cells [1]; read-out: PC3 GI50 (μg))?
Its GI50 is > 100 µM.

And the IC50 (neuronal VGSCs)?
The IC50 was 40 µM.

What about the GI50 (PC-3 cells [2]) of the same compound?
Its GI50 is > 100 µM.

What about the “% [3H]-BTX Displacement At 10 μM” value [3] of the same compound?
The value was 19.78 ± 1.21 (2) %.

What about the “less likely to be diagnosed with prostate cancer” value [4] of the same compound?
Its value is 40%.

And the “% [3H]-BTX Inhibition (40 μM)” value (site 2 of the VGSC; 40 μM, rat brain synaptoneurosomes, Table 9)?
Its value is 30.4 ± 3.3%.

What about the “% [3H]-BTX Displacement (40 μm)” value (site 2 of the VGSC; 40 μm, rat brain synaptoneurosomes, Table 13) of the same compound?
The value was 27.7%.

What about the “[3H]-BTX-B Binding Data, Displacement %” value (site 2 of the VGSC; Screen at 40 μM, 2 replicates, referenced to Aconitine) of the same compound?
The value was 50%.
